According to patent publication US9101632B2, “Kinase inhibitors, prodrug forms thereof and their use in therapy” (AUCKLAND UNISERVICES LIMITED, priority 2009, dated 2015):
Like-named read-outs stand apart in the source and are kept apart here.

Columns and labels:
erbB1 (EGFR) = erbB1 (EGFR) (Homo sapiens, UniProt P00533); assay: Inhibition of erbB1 autophosphorylation in EGF-stimulated intact A431 cells (Western immunoblotting); type: cell-based; conditions: 1 hour treatment, phospho-EGFR (Tyr 1068), β-actin corrected
Protocol: (§1) A431 cells were seeded into 6 well plates (with αMEM+5% FCS). The following day, plates were washed once with serum-free medium and grown for 18 hours in serum-free medium (αMEM) before being exposed to a range of inhibitor or prodrug concentrations for 1 hour and then stimulated for 15 minutes with 100 ng/ml epidermal growth factor (EGF receptor ligand). Next cells were washed with ice cold PBS and lysed in modified RIPA buffer on ice (30 min). Lysates were vortexed and clarify by spinning before protein concentrations of samples was determined by BCA assay. […] All antibodies were diluted in 2% BSA TBS-Tween 0.1%. To detect phospho-EGFR (Tyr 1068) the monoclonal antibody (1:500; Cell Signalling #2234) was incubated overnight at 4° C. and binding was detected with goat-anti-Rabbit-IgG-HRP conjugated secondary antibody (1:5000; Santa Cruz #SC2054; 3 h RT). To detect downstream phospho-p44/42 MAPK(Erk 1/2) (Thr202/Tyr 204) the monoclonal antibody (Cell Signalling #4370) was used at a 1:500 dilution. The blot was then treated with Goat anti-rabbit IgG-HRP conjugated secondary antibody (Santa Cruz Biotechnology, Inc. sc-2054) for three hours at a ratio of 1:5000. To normalise for any inaccuracy in gel loading, each blot was probed with anti-β-actin antibody (Abacus ALS #MAB-1501R, 1:2000 dilution). The following day, the blot was treated with Goat anti-mouse IgG-HRP conjugated secondary antibody (Santa Cruz Biotechnology, Inc. sc-2055) for one hour at a 1:5000 ratio. Protein bands were visualized using Amersham ECL Plus Western Blotting Detection Reagent (GE Healthcare RPN2132). Densitometry was determined using Image J software. Values normalized to β-actin were plotted on SigmaPlot 11.0.

p44/42 MAPK (Erk1/2) = assay: Inhibition of p44/42 MAPK (Erk1/2) phosphorylation in EGF-stimulated intact A431 cells (Western immunoblotting); type: cell-based, human; conditions: for downstream p44/42 MAPK(Erk 1/2) phosphorylation (Thr202/Tyr 204), result in words: 1 hour treatment
Protocol: as §1

H1975 tumours = conditions: H1975 xenograft, q3dx4, intraperitoneal; for Drug related deaths: lactate buffer pH 4; for Weight Loss Nadir (%): mean nadir relative to day 0 weight
A431 cells = assay: Inhibition of cellular proliferation (sulforhodamine B staining)
H1975 cells = assay: as above; conditions: for H1975 HCR (Hypoxic Cytotoxicity Ratio): fold change in intra-experimental IC50, 4 hours anoxia relative to oxic only
SKOV3 cells = assay: as above; conditions: for SKOV3 HCR (Hypoxic Cytotoxicity Ratio): fold change in intra-experimental IC50, 4 hours anoxia relative to oxic only
A431 tumours = conditions: A431 xenograft, q3dx4, intraperitoneal; for Drug related deaths: lactate buffer pH 4; for TGD (Tumour Growth Delay): % increase in time to RTV4 relative to control; for Weight Loss Nadir (%): mean nadir relative to day 0 weight
[1] = pulse radiolysis, determined against methylviologen
[2] = read-out: Cellular Growth Inhibition IC50 A431 Anoxic, initial 4 hours of the 24 hour exposure under anoxic conditions
[3] = read-out: Cellular Growth Inhibition IC50 H1975 Anoxic, initial 4 hours of the 24 hour exposure under anoxic conditions
[4] = read-out: Cellular Growth Inhibition IC50 SKOV3 Anoxic, initial 4 hours of the 24 hour exposure under anoxic conditions
[5] = read-out: Cellular Growth Inhibition IC50 A431 Oxic, 24 hour exposure entirely under oxic conditions, washed, further 4 days
[6] = read-out: Cellular Growth Inhibition IC50 H1975 Oxic, 24 hour exposure entirely under oxic conditions, washed, further 4 days
[7] = read-out: Cellular Growth Inhibition IC50 SKOV3 Oxic, 24 hour exposure entirely under oxic conditions, washed, further 4 days

Chain of erbB1 (EGFR) (P00533 25-1210): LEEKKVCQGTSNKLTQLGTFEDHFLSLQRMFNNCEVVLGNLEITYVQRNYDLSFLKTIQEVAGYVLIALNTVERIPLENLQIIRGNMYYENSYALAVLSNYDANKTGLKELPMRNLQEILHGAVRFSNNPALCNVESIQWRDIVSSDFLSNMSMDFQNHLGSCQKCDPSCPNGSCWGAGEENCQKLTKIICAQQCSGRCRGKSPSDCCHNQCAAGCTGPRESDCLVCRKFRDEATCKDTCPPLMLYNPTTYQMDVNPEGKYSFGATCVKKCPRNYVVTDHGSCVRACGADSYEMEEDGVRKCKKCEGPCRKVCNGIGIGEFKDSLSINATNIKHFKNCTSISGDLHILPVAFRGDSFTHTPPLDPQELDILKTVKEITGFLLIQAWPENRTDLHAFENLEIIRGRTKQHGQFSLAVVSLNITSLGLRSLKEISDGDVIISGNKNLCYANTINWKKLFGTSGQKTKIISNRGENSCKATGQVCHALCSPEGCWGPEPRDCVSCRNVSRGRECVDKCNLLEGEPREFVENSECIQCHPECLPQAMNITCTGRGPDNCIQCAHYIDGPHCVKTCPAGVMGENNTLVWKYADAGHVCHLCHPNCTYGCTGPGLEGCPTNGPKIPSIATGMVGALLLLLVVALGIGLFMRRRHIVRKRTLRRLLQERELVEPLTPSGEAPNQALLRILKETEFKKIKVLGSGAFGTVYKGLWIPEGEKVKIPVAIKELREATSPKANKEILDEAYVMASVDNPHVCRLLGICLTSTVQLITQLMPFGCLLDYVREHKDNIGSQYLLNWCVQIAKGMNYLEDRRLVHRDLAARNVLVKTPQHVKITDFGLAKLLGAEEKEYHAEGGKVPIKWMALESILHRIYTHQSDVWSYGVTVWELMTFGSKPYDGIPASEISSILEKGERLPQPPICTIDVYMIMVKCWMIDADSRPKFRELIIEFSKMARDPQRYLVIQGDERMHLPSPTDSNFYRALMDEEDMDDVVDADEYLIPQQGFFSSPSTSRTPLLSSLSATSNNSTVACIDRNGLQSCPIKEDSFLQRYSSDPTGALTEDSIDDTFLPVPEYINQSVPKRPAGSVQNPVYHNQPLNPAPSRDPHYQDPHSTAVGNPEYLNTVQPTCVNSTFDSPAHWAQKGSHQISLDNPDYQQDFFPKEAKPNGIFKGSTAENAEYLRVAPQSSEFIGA

Compound | IC50 (erbB1 (EGFR)) | downstream p44/42 MAPK(Erk 1/2) phosphorylation (Thr202/Tyr 204), result in words (p44/42 MAPK (Erk1/2)) | IC50 (p44/42 MAPK (Erk1/2); Homo sapiens, A-431, 1 hour treatment, read-out: IC50 p44/42 MAPK(Erk 1/2) phosphorylation (Thr202/Tyr 204)) | Drug related deaths (H1975 tumours) | Weight Loss Nadir (%) (H1975 tumours) | IC50 (A431 cells; [2]) | H1975 HCR (Hypoxic Cytotoxicity Ratio) (H1975 cells) | IC50 (H1975 cells; [3]) | IC50 (SKOV3 cells; [4]) | Drug related deaths (A431 tumours) | TGD (Tumour Growth Delay) (A431 tumours) | Weight Loss Nadir (%) (A431 tumours) | A431 HCR (Hypoxic Cytotoxicity Ratio) (A431 cells; fold change in intra-experimental IC50, 4 hours anoxia relative to oxic only) | IC50 (A431 cells; [5]) | IC50 (H1975 cells; [6]) | SKOV3 HCR (Hypoxic Cytotoxicity Ratio) (SKOV3 cells) | IC50 (SKOV3 cells; [7]) | E(1)/V 1-electron reduction potential [1] | TGD (Tumour Growth Delay) (H1975 tumours; % increase in time to RTV4 relative to control)
CN(C)C/C=C/C(=O)Nc1cc2c(Nc3ccc(OCc4ccccn4)c(Cl)c3)ncnc2cn1 [Compound 3, (2E)-N-{4-[3-chloro-4-(2-pyridinylmethoxy)anilino]pyrido[3,4-d]pyrimidin-6-yl}-4-(dimethylamino)-2-butenamide] | 0.0483 µM | coordinate loss | 0.179 µM | 0 | −4.7 ± 0.4% | 0.14 µM | 0.8 | 0.73 µM | 1.13 µM | – | – | – | – | – | – | – | – | – | –
CN(C)C/C=C/C(=O)Nc1cc2c(Nc3ccc(Cl)c(Br)c3)ncnc2cn1 [Compound 5, (2E)-N-[4-(3-bromo-4-chloroanilino)pyrido[3,4-d]pyrimidin-6-yl]-4-(dimethylamino)-2-butenamide] | 0.0395 µM | coordinate loss | – | 1 | −8.5 ± 0.6% | 0.01 µM | 0.9 | 0.5 µM | 0.45 µM | 0 | >250% | −6.3 ± 4.5% | 1.0 | 0.009 µM | 0.29 µM | 0.9 | 0.3 µM | – | –
CN(C)C/C=C/C(=O)Nc1cc2c(Nc3ccc(Br)c(Cl)c3)ncnc2cn1 [Compound 6, (2E)-N-[4-(4-bromo-3-chloroanilino)pyrido[3,4-d]pyrimidin-6-yl]-4-(dimethylamino)-2-butenamide] | 0.025 µM | coordinate loss | – | – | – | 0.005 µM | 0.7 | 0.22 µM | 0.55 µM | 0 | >250% | −1.5 ± 0.8% | – | 0.005 µM | 0.15 µM | 0.7 | 0.2 µM | – | –
C#Cc1cc(Nc2ncnc3cnc(NC(=O)/C=C/CN(C)C)cc23)ccc1Cl [Compound 9, (2E)-N-[4-(4-chloro-3-ethynylanilino)pyrido[3,4-d]pyrimidin-6-yl]-4-(dimethylamino)-2-butenamide] | – | – | – | – | – | 0.016 µM | 0.5 | 0.56 µM | 0.96 µM | 0 | >250% | −1.7 ± 1.7% | – | – | – | – | – | – | –
Cn1cnc([N+](=O)[O-])c1C[N+](C)(C)C/C=C/C(=O)Nc1cc2c(Nc3ccc(OCc4cccc(Cl)c4)c(Cl)c3)ncnc2cn1 [Compound 12, (2E)-4-[(4-{3-chloro-4-[(3-chlorobenzyl)oxy]anilino}pyrido[3,4-d]pyrimidin-6-yl)amino]-N,N-dimethyl-N-[(1-methyl-4-nitro-1H-imidazol-5-yl)methyl]-4-oxo-2-buten-1-ammonium bromide] | – | – | – | 0 | −7.8 ± 0.6% | 0.37 µM | 14 | 2.4 µM | 8.1 µM | – | – | – | – | 2.9 µM | 36 µM | 26 | 47 µM | – | –
Cn1cnc([N+](=O)[O-])c1C[N+](C)(C)C/C=C/C(=O)Nc1cc2c(Nc3ccc(Br)c(Cl)c3)ncnc2cn1.[Br-] [Compound 18, (2E)-4-{[4-(4-bromo-3-chloroanilino)pyrido[3,4-d]pyrimidin-6-yl]amino}-N,N-dimethyl-N-[(1-methyl-4-nitro-1H-imidazol-5-yl)methyl]-4-oxo-2-buten-1-ammonium bromide] | – | – | – | – | – | 0.012 µM | – | 0.2 µM | 0.6 µM | 0 | >250% | −4.1 ± 0.4% | – | 0.5 µM | 13.3 µM | 24 | 13 µM | −0.428 V | –
Cn1cnc([N+](=O)[O-])c1C[N+](C)(C)C/C=C/C(=O)Nc1cc2c(Nc3ccc(Br)c(Br)c3)ncnc2cn1.[Br-] [Compound 19, (2E)-4-{[4-(3,4-dibromoanilino)pyrido[3,4-d]pyrimidin-6-yl]amino}-N,N-dimethyl-N-[(1-methyl-4-nitro-1H-imidazol-5-yl)methyl]-4-oxo-2-buten-1-ammonium bromide] | – | – | – | 1 | −2.7 ± 0.6% | 0.025 µM | – | 0.23 µM | 0.42 µM | – | – | – | – | 0.42 µM | 15 µM | – | 29 µM | −0.425 V | 138%
C#Cc1cc(Nc2ncnc3cnc(NC(=O)/C=C/C[N+](C)(C)Cc4c([N+](=O)[O-])ncn4C)cc23)ccc1F [Compound 20, (2E)-4-{[4-(3-ethynyl-4-fluoroanilino)pyrido[3,4-d]pyrimidin-6-yl]amino}-N,N-dimethyl-N-[(1-methyl-4-nitro-1H-imidazol-5-yl)methyl]-4-oxo-2-buten-1-ammonium bromide] | – | – | – | 0 | −4.4 ± 2.3% | 0.13 µM | – | 3.3 µM | 4.4 µM | – | – | – | – | 3.9 µM | 118 µM | 15 | 194 µM | – | –
C#Cc1cc(Nc2ncnc3cnc(NC(=O)/C=C/C[N+](C)(C)Cc4c([N+](=O)[O-])ncn4C)cc23)ccc1Cl [Compound 21, (2E)-4-{[4-(4-chloro-3-ethynylanilino)pyrido[3,4-d]pyrimidin-6-yl]amino}-N,N-dimethyl-N-[(1-methyl-4-nitro-1H-imidazol-5-yl)methyl]-4-oxo-2-buten-1-ammonium bromide] | – | – | – | – | – | < 0.01 µM | 18 | 0.6 µM | 1.13 µM | 0 | >250% | −4.3 ± 2.3% | – | 0.85 µM | 18 µM | – | 47 µM | – | –
